Assay results: publication PMC10787067, “EBF2 Links KMT2D‐Mediated H3K4me1 to Suppress Pancreatic Cancer Progression via Upregulating KLLN” (Advanced Science, 2023)
One block for each molecule: values may come before it.

Legend:
EBF2 = assay: Peptide pull-down with SW1990 and PANC-1 protein extracts; type: binding, Human; settings: biotin-labeled peptides, protein extracts from SW1990 and PANC-1 cells; in vitro; Figure 1B
Procedure: Unmodified histone 3 (H3), H3K4me1 peptides were incubated with nuclear extract of SW1990 cells, separated by SDS‐PAGE gel, and subjected to mass spectrometry. Factors specifically associating with H3K4me1 were screened by peptide pulldown coupled with mass spectrometry analysis. Mass spectrometry‐based proteomic analysis yielded a plethora of putative H3K4me1‐associated proteins, including many known histone or DNA modifiers, readers, and chromatin remodelers (Table S1, Supporting Information). Given that KMT2D executes its antitumor function via catalyzing the formation of H3K4me1 in pancreatic cancer, we explored the genes associated with H3K4me1.
The product was separated by sodium dodecyl sulfate‐polyacrylamide gel electrophoresis (SDS‐PAGE) with silver staining. Protein bands of interest were excised and subjected to electrospray‐ion trap tandem mass spectrometry (LCQ‐Deca, Finnigan).

His‐EBF2 = biological target: T1, His‐EBF2 (Homo sapiens, UniProt Q9HAK2); assay: Peptide pull-down with purified His-EBF2 fusion protein; type: binding; settings: purified His-EBF2 expressed in E. coli; Figure 1C
T1 construct: His‐EBF2 plasmid was constructed by inserting the CDS of EBF2 into PET‐28a vector; His; made in house; host or cells: E. coli BL21 (DE3)
T1 sequence (Q9HAK2 1-575): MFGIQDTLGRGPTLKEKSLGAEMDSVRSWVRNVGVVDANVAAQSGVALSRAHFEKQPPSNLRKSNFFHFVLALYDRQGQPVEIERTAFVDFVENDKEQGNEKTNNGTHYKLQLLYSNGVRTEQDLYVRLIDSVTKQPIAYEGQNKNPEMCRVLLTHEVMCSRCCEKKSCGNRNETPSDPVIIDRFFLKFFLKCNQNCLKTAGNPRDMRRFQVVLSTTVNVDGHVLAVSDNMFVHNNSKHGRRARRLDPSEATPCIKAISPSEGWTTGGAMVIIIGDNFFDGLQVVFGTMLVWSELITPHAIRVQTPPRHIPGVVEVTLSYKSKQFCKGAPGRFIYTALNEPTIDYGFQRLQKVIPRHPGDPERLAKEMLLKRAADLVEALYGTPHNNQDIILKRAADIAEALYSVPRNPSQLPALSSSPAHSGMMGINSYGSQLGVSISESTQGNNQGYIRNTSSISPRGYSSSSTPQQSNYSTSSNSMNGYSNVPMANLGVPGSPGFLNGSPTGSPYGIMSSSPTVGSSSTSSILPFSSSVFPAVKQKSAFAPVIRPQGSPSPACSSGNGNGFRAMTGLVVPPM
Procedure: The CDS region of EBF2 gene was inserted into pET‐28a plasmid to express recombinant His‐tagged EBF2 fusion protein (His‐EBF2) in E. coli (Figure 1C).
His‐EBF2 plasmid was constructed by inserting the CDS of EBF2 into PET‐28a vector, transformed into E. coli BL21 (DE3), and cultured with isopropyl‐β‐D‐thiogalactoside (IPTG; Beyotime) at 16 °C for 12 h, until the optical density (OD600) reached 0.5–0.6. BL21 cells were collected and sonicated in cold PBS buffer, and His‐fusion proteins were purified with High Affinity Nickel beads (Genscript, Nanjing, China). The purity of His‐fusion proteins was evaluated by SDS‐PAGE.

His‐EBF2 fusion protein = assay: Isothermal titration calorimetry (ITC); type: binding; settings: Figure 1E
Procedure: His‐EBF2 plasmid was constructed by inserting the CDS of EBF2 into PET‐28a vector, transformed into E. coli BL21 (DE3), and cultured with isopropyl‐β‐D‐thiogalactoside (IPTG; Beyotime) at 16 °C for 12 h, […]. BL21 cells were collected and sonicated in cold PBS buffer, and His‐fusion proteins were purified with High Affinity Nickel beads (Genscript, Nanjing, China). The purity of His‐fusion proteins was evaluated by SDS‐PAGE.
A MicroCal ITC‐200 system (Malvern Instruments Ltd., UK) was used for ITC assay. Briefly, the synthesized peptides (Genscript) and proteins were all subjected to extensive dialysis against PBS. Peptides at a concentration of 1 mM were loaded into the ITC syringe, and proteins at a concentration of 100 µM into the ITC cell. Then, every 2 µL of peptide was automatically injected into the cell at 25 °C. The results of binding isotherms were analyzed using the Origin 7.0 software package (Origin Lab).

[1] = biological target: recombinant His-tagged EBF2 fusion protein (human) (UniProt Q9HAK2); assay: MST; NT-647-NHS-labelled EBF2 at 100 nM in PBS with 0.05% Tween-20, pH 7.4; peptides 10 nM to 500 uM; Monolith NT.115
H3K4me1 = assay: Co-IP of Flag-tagged EBF2-WT or EBF2-H239A with H3K4me1 in SW1990 cells; type: binding, Human; settings: Co-IP on SW1990 cells; Figure S1B
Procedure: Co‐immunoprecipitation assay was performed as described previously.^[ [61] ^] Briefly, SW1990 cells were transfected with indicated constructs or treated with GSK‐LSD1, washed with cold phosphate buffered saline (PBS), and lysed with cold cell lysis buffer. Then, the lysates were incubated with appropriate specific antibodies or normal rabbit IgG at 4 °C overnight in constant rotation, followed by the addition of protein A/G Sepharose beads and incubation for 2 h at 4 °C. The beads were then washed five times by the lysis buffer. Bead‐bound proteins were resolved by SDS‐PAGE and detected by immunoblotting using indicated antibodies.

pull-down of purified His-EBF2 by peptide (His‐EBF2): pulled down by H3K4me1 peptide
Molecule: CNCCCC[C@H](NC(=O)[C@@H](NC(=O)[C@H](CCCNC(=N)N)NC(=O)[C@H](C)N)[C@@H](C)O)C(=O)N[C@@H](CCC(N)=O)C(=O)N[C@H](C(=O)N[C@@H](C)C(=O)N[C@@H](CCCNC(=N)N)C(=O)N[C@@H](CCCCN)C(=O)N[C@@H](CO)C(=O)N[C@H](C(=O)NCC(=O)NCC(=O)N[C@@H](CCCCN)C(=O)N[C@@H](C)C(=O)N1CCC[C@H]1C(=O)N[C@@H](CCCNC(=N)N)C(=O)N[C@@H](CCCCN)C(=O)N[C@@H](CCC(N)=O)C(=O)O)[C@@H](C)O)[C@@H](C)O [H3K4me1]
preferential binding of EBF2 to peptide (EBF2): preferential binding of EBF2 to H3K4me1 over H3K4me3 | affinity of His-EBF2 to peptide, in words (His‐EBF2 fusion protein): strong affinity

Kd [1]: 7.37 µM
Molecule: H3K4me1 peptide (C-terminal biotin-tagged 19 amino acid N-terminal peptide of histone H3, mono-methylated on Lys 4) (from UniProt P68431 2-20)

B1: EBF2‐H239A: Flag-tagged EBF2-H239A; H239 is the site for H3K4me1 binding to EBF2 protein (protein)
chain: MFGIQDTLGRGPTLKEKSLGAEMDSVRSWVRNVGVVDANVAAQSGVALSRAHFEKQPPSNLRKSNFFHFVLALYDRQGQPVEIERTAFVDFVENDKEQGNEKTNNGTHYKLQLLYSNGVRTEQDLYVRLIDSVTKQPIAYEGQNKNPEMCRVLLTHEVMCSRCCEKKSCGNRNETPSDPVIIDRFFLKFFLKCNQNCLKTAGNPRDMRRFQVVLSTTVNVDGHVLAVSDNMFVHNNSKAGRRARRLDPSEATPCIKAISPSEGWTTGGAMVIIIGDNFFDGLQVVFGTMLVWSELITPHAIRVQTPPRHIPGVVEVTLSYKSKQFCKGAPGRFIYTALNEPTIDYGFQRLQKVIPRHPGDPERLAKEMLLKRAADLVEALYGTPHNNQDIILKRAADIAEALYSVPRNPSQLPALSSSPAHSGMMGINSYGSQLGVSISESTQGNNQGYIRNTSSISPRGYSSSSTPQQSNYSTSSNSMNGYSNVPMANLGVPGSPGFLNGSPTGSPYGIMSSSPTVGSSSTSSILPFSSSVFPAVKQKSAFAPVIRPQGSPSPACSSGNGNGFRAMTGLVVPPM
ability to bind H3K4me1 compared with EBF2-WT (H3K4me1): significantly weaker than that of EBF2‐WT
